Experimental data published in patent publication US20220346377A1, “NOVEL COMPOSITIONS” (DSM IP ASSETS B.V., priority 2019, published 2022).

Columns and labels:
Format in all cases: cell-based
Candida albicans = experiment: Antimicrobial efficacy in analogy to challenge test (NF EN ISO11930), Candida albicans
Method: The antimicrobial efficacy was assessed in analogy to the regulatory challenge test method (NF EN ISO11930). Thus, mixtures of the respective active(s) with physiological serum with 0.85 wt.-% NaCl in the concentrations as outlined below are prepared under sterile conditions. Controls were also prepared under sterile conditions. The control as well as the mixtures were then deposed in 96-deep well plates (1.6 ml/well). […] After the contamination, each well was thoroughly mixed to ensure a homogeneous distribution of microbes. Then each plate was incubated at 22° C. for 24 h. The counting of the (remaining) population is carried out 24 h after contamination. Then, the average log reduction is calculated [−log 10{(value inoculum)/(value sample)}] which is represented in tables 1-5.

Escherichia coli = experiment: Antimicrobial efficacy in analogy to challenge test (NF EN ISO11930), Escherichia coli; settings: 0.2 wt.-% Sodium Benzoate
Method: (§1) The antimicrobial efficacy was assessed in analogy to the regulatory challenge test method (NF EN ISO11930). Thus, mixtures of the respective active(s) with physiological serum with 0.85 wt.-% NaCl in the concentrations as outlined below are prepared under sterile conditions. Controls were also prepared under sterile conditions. The control as well as the mixtures were then deposed in 96-deep well plates (1.6 ml/well). The wells were contaminated with the respective bacterial or the fungal strains at 2.5*10^5 to 5.6*10^5 cfu/ml for the bacteria and 1*10^4 to 2.5*10^4 cfu/ml for the fungi to obtain the initial contamination as outlined below. After the contamination, each well was thoroughly mixed to ensure a homogeneous distribution of microbes. Then each plate was incubated at 22° C. for 24 h. The counting of the (remaining) population is carried out 24 h after contamination. Then, the average log reduction is calculated [−log 10{(value inoculum)/(value sample)}] which is represented in tables 1-5.

Staphylococcus aureus = experiment: Antimicrobial efficacy in analogy to challenge test (NF EN ISO11930), Staphylococcus aureus
Method: as §1

Aspergillus brasiliensis = experiment: Antimicrobial efficacy in analogy to challenge test (NF EN ISO11930), Aspergillus brasiliensis; settings: 0.3 wt.-% DBO
Method: as §1

SMILES: OCCCO [PDO, 1,3-propanediol]
- Log reduction (Candida albicans; 1.0 wt.-% PDO, 24 h): −0.24
- colony count 24 h (Candida albicans; 1.0 wt.-% PDO, inoculum 70000 cfu/ml, 24 h): 40000 cfu/ml

SMILES: O=C([O-])c1ccccc1.[Na+] [Sodium Benzoate, sodium benzoate]
- colony count 24 h (Escherichia coli; inoculum 400000 cfu/ml): 1000000 cfu/ml
- Log reduction (Escherichia coli; 24 h): +0.40

SMILES: CC(=O)c1ccc(O)cc1 [HAP, p-Hydroxyacetophenone]
- colony count 24 h (Staphylococcus aureus; 0.3 wt.-% HAP, inoculum 550000 cfu/ml, 24 h): 70000 cfu/ml

SMILES: c1ccc2oc(-c3ccc(-c4nc5ccccc5o4)cc3)nc2c1 [DBO, 1,4-di(benzoxazol-2′-yl)benzene]
- Log reduction (Aspergillus brasiliensis; 24 h after contamination): −2.05
- colony count 24 h (Aspergillus brasiliensis; inoculum 45000 cfu/ml, 22° C., 24 h): 400 cfu/ml
- Log reduction (Candida albicans; 0.3 wt.-% DBO, 24 h after contamination): −0.51
- colony count 24 h (Candida albicans; 0.3 wt.-% DBO, inoculum 32000 cfu/ml, 22° C., 24 h, physiological serum 0.85 wt.-% NaCl): 10000 cfu/ml
- synergistic effect on antimicrobial activity (Staphylococcus aureus; DBO with p-Hydroxyacetophenone, conclusion from Table 3): synergistically enhances the antimicrobial activity of p-Hydroxyacetophenone
